This note sets out measurements from patent US20240316051A1, “A PHARMACEUTICAL COMBINATION AND USE THEREOF” (Ascentage Pharma (Suzhou) Co., Ltd., priority 2021, published 2024).

The subject of experiment [1] is NCI-H28(X1) (BAP1mut, UHRF1high, TP53WT, CDKN2Adel, FGFRlow, NF2WT) subcutaneous mesothelioma xenograft. The experiment can be described thus: NCI-H28(X1) subcutaneous mesothelioma xenograft model (Example 23). Format: in vivo, mice. The following applies: Compound C 50 mg/kg orally every other day, Compound 73 100 mg/kg orally once per day, 28 days, alone or combined. The protocol:
(§1) A subcutaneous xenograft tumor model of human tumor immunodeficient mice was established by cell inoculation: tumor cells in logarithmic growth phase were collected, counted, resuspended in 1×PBS, and the cell suspension concentration was adjusted to 2.5-5×10^7/mL. The tumor cells were inoculated subcutaneously in the right side of immunodeficient mice with a 1 ml syringe ([…]), 5-10×10^6/0.2 mL/mouse. All animal experiments were strictly in accordance with the specifications for the use and management of experimental animals in GenePharma Co., Ltd. and Suzhou Ascentage Pharma Co., Ltd. The calculation of relevant parameters refers to the Chinese NMPA “Guidelines for Non-Clinical Research Techniques of Cytotoxic Anti-tumor Drugs”.
(§2) Animal body weight and tumor size were measured twice weekly during the experiment. The state of the animal and the presence or absence of death were observed every day. The growth of tumor and the effects of treatment on normal behavior of animals were monitored routinely, specifically involving experimental animal activity, feeding and drinking, weight gain or loss, eyes, clothing hair and other abnormalities. The deaths and clinical symptoms observed during the experiment were recorded in the raw data. All operations for administration and measurement of mouse body weight and tumor volume were performed in a clean bench. According to the requirements of the experimental protocol, after the end of the last administration, plasma and tumor tissues were collected, weighed and photographed. The plasma and tumor samples were frozen at −80° C. for ready-to-use.
(§3) Tumor volume (TV) is calculated as: TV=a×b^2/2, wherein a and b represent the length and width of the tumor to be measured, respectively.
(§4) The relative tumor volume (RTV) is calculated as: RTV=Vt/V1, wherein V1 is the tumor volume at the start of grouping and administration, and Vt is the tumor volume measured on the t day after administration.
The evaluation index of anti-tumor activity is the relative tumor proliferation rate T/C (%), and the calculation formula thereof is: relative tumor proliferation rate T/C (%)=(TRTV/CRTV)×100%, TRTV is the RTV of treatment group, CRTV is the RTV of solvent control group. […]
(§5) According to the description by Clarke R., Issues in experimental design and endpoint analysis in the study of experimental cytotoxic agents in vivo in breast cancer and other models [J]. Breast Cancer Research & Treatment, 1997, 46(2-3): 255-278, synergy analysis was evaluated using the following formula: synergy factor=((A/C)×(B/C))/(AB/C); A=RTV value of drug A alone group; B=RTV value of drug B alone group; C=RTV value of the solvent control group, and AB=RTV value of the A and B combination group. […]

Experiment [2] concerns the target T1, EED (1-441)-His protein (Homo sapiens, UniProt O75530).
T1 construct: 20 nM EED (1-441)-His protein
Briefly: EED-H3K27Me3 peptide competition binding assay by AlphaScreen. The following applies: Table 4A, read-out: Alpha screen. In a few lines:
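Readout was AlphaScreen emission at 615 nm after 680 nm excitation, with 10 μg/ml final each of streptavidin donor and nickel chelate acceptor beads, 1 h at RT in the dark. Beforehand, compound met the His-tagged EED(1-441) for 15 min and then biotinylated H3K27Me3(19-33) peptide for 30 min; both were added as 20 nM solutions, buffer 25 mM HEPES pH 8, Tween-20, BSA. Percent activity left was fitted to give IC50.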
Background: Bead proximity is the source of the signal in Alpha formats.

Experiment [3] relates to malignant pleural mesothelioma (MPM) PDX model (FGFR1high; BAP1mut). The experiment can be described thus: Subcutaneous malignant pleural mesothelioma (MPM) PDX model (Example 20). Format: in vivo, mice. The following applies: Compound 73 100 mg/kg, Compound C 50 mg/kg, each orally every other day, 76 days; alone or combined. The procedure: as §1, §2, §3
The relative tumor volume (RTV) is calculated as: RTV=Vt/V1, wherein V1 is the tumor volume at the start of grouping and administration, and Vt is the tumor volume measured on the t day after administration. […]
Change of body weight (%)=(measured body weight-body weight at the start of grouping)/body weight at the start of grouping×100%. […]
as §5

The subject of experiment [4] is H226 (BAP1mut, UHRF1high, TP53WT, CDKN2Adel, FGFRhigh) subcutaneous mesothelioma xenograft. Briefly: H226 subcutaneous mesothelioma xenograft model (Example 22). Format: in vivo, mice. The following applies: for RTV @ D 39: mean ± SEM. The protocol:
as §1, §2, §3, §4
The evaluation index of anti-tumor activity is the relative tumor proliferation rate T/C (%), and the calculation formula thereof is: relative tumor proliferation rate T/C (%)=(TRTV/CRTV)×100%, TRTV is the RTV of treatment group, CRTV is the RTV of solvent control group.
Change of body weight (%)=(measured body weight-body weight at the start of grouping)/body weight at the start of grouping×100%.
A dose of drug is considered to be severely toxic if the body weight of mouse is reduced by more than 20% or the number of drug-related deaths exceeds 20%.
In this experiment, H226 (BAP1mut, UHRF1high, TP53WT, CDKN2Adel, FGFRhigh) subcutaneous mesothelioma xenograft model was established to evaluate the anti-tumor effect of Compound 73 in combination with Compound C. The dosing regimen was as follows: • Compound C: 50 mg/kg, orally, every other day, for a total of 39 days; • Compound 73: 50 mg/kg, orally, once per day, for a total of 39 days; • Compound 73: 100 mg/kg, orally, once per day, for a total of 39 days.

[5] abbreviates: Compound 73 100 mg/kg orally once per day, alone or combined with Compound C 50 mg/kg every other day.
Where [6] appears, read: Compound C 50 mg/kg orally every other day, Compound 73 50 mg/kg orally once per day, alone or combined.

T1 sequence (O75530 whole entry): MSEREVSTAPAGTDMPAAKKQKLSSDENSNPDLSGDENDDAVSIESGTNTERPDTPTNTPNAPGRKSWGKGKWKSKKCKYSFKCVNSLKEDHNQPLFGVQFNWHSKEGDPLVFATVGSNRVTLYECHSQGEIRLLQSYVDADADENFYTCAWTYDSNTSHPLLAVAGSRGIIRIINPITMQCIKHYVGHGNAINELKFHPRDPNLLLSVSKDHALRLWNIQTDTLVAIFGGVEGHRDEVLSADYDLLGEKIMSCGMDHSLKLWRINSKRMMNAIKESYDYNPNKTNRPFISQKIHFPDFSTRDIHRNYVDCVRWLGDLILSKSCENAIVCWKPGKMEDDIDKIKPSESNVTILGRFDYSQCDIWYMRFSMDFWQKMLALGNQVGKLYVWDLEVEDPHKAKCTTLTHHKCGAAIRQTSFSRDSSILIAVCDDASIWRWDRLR

Turning to `CC(C)N1Cc2cc(C(F)(F)F)ncc2-c2cnc(NCc3c(F)ccc4c3CCO4)n3cnc(c23)C1=O` [Compound 73, 12-(((5-fluoro-2,3-dihydrobenzofuran-4-yl)methyl)amino)-4-isopropyl-7-(trifluoromethyl)-4,5-dihydro-3H-2,4,8,11,12a-pentaazabenzo[4,5]cycloocta[1,2,3-cd]inden-3-one], in experiment [1], the “T/C (%) @ D 29” value is listed as 33.06%. In experiment [1] (mean ± SEM), the “RTV@ D 29” value worked out at 5.05 ± 0.41. For the same molecule, the IC50 in experiment [2] worked out at 0.5 nM. Further, in experiment [3], the “RTV @ D 76” value amounted to 3.06 and the “T/C (%) @ D 76” value was 53%. In experiment [4] (setting [5]), the “T/C (%) @ D 39” value is 59.73% and the “RTV @ D 39” value is 4.76 ± 0.61. In experiment [4] (setting [6]), the “T/C (%) @ D 39” value came to 67.7% and the “RTV @ D 39” value was found to be 5.39 ± 0.56. The “antitumor activity (in words)” value in experiment [4] (single agents, 39 days (FIG. 10)) was “moderate antitumor activity”.
